Assay results reported in patent US6444645B1, “Crosslink-stabilized indolicidin analogs” (The Regents of the University of California, priority 1998, dated 2002).
Where two headings read alike, the source gives them in different places.

Experiments:
Candida albicans 16820 = details: 10, 30, 100 or 300 μg/ml in 10 mM PIPES pH 7.4; FIG. 5
Method: (§1) Nutrient-containing agar (or agarose) plates were seeded with E. coli ML35, C. neoformans 271A, S. aureus 207A or C. albicans 16820. […] Following an initial incubation interval of 1 to 4 hr, the well-containing layer was overlayed with enriched (2×normal) solid medium in order to support microbial growth outside the perimeter of inhibition. After overnight incubation at 30° C. to 37° C., the antimicrobial activity was quantitated by measuring the clear zones around each well (zone of inhibition).

[1] = system: Cryptococcus neoformans 271A; details: 10, 30, 100 or 300 μg/ml in 10 mM PIPES pH 7.4; FIG. 3
Method: as §1

Escherichia coli ML35 = details: 10, 30, 100 or 300 μg/ml in 10 mM PIPES pH 7.4; FIG. 2
Method: as §1

[2] = system: Staphylococcus aureus 207A; details: 10, 30, 100 or 300 μg/ml in 10 mM PIPES pH 7.4; FIG. 4
Method: as §1

C. albicans = details: 60 min, 10 mM PIPES pH 7.4
Method: (§2) Microbicidal activity was measured by first incubating the target organism with the peptide in 10 mM PIPES buffer (pH 7.4), then plating the suspension to quantitate surviving microorganisms.
(§3) Cultures were grown to mid log phase in an appropriate medium, harvested, washed, and resuspended to 1-2×10^7 colony forming units (CFU) per ml. To conserve peptide, the incubation volume usually was 0.05 ml, with the final cell concentration being 1-2×10^6 CFU/ml. Peptide stock solutions, usually made up in […], were diluted in the incubation buffer to a final concentration of 1 μg/ml to 30 μg/ml, and the incubation was initiated by addition of an appropriate volume of the bacterial or fungal stock suspension to the prewarmed (37° C.) peptide-buffer mixture. E. coli and S. aureus were incubated with peptide for 30 min; C. albicans was incubated for 60 min; and C. neoformans was incubated for 4 hr. Following incubation, 50 μl or 100 μl samples were removed and diluted serially, then plated on nutrient-containing agar plates.

C. neoformans 271A = details: 4 hr
Method: as §2, §3

E. coli ML35 = details: 30 min
Method: as §2, §3

S. aureus 207A = details: 30 min
Method: as §2, §3

α-chymotrypsin = α-chymotrypsin 1% by weight, 0.1 M Tris buffer pH 7.7, 37° C., RP-HPLC
[3] = 10 μg/ml peptide, 10 mM PIPES pH 7.4

For “Ile-Leu-Pro-Trp-Lys-Trp-Pro-Trp-Trp-Pro-Trp-Arg-Arg-CONH2 [Indol 1-13]”, the “growth inhibition (zone of inhibition)” value (Candida albicans 16820) was “inhibited the growth of each microorganism tested in a dose dependent manner”, the “growth inhibition (zone of inhibition)” value [1] was “inhibited the growth of each microorganism tested in a dose dependent manner” and the “growth inhibition (zone of inhibition)” value (Escherichia coli ML35) was “inhibited the growth of each microorganism tested in a dose dependent manner”. For the same substance, the “growth inhibition (zone of inhibition)” value [2] was “inhibited the growth of each microorganism tested in a dose dependent manner”, the “reduction of survival (CFU)” value (C. albicans; 10 μg/ml peptide) was “about two orders of magnitude” and the “reduction of survival (CFU)” value (C. albicans; 30 μg/ml peptide) was “greater than three orders of magnitude”. For the same substance, the “reduction of survival (CFU)” value (C. neoformans 271A; [3]) was “greater than three orders of magnitude”, the “additional killing versus 10 μg/ml” value (C. neoformans 271A; 30 μg/ml peptide) was “minimal additional killing” and the “reduction of survival (CFU)” value (E. coli ML35; [3]) was “greater than three orders of magnitude”. The “additional killing versus 10 μg/ml” value (E. coli ML35; 30 μg/ml peptide) was “minimal additional killing”, the “reduction of survival (CFU)” value (S. aureus 207A; [3]) was “greater than three orders of magnitude” and the “additional killing versus 10 μg/ml” value (S. aureus 207A; 30 μg/ml peptide) was “minimal additional killing”. For the same substance, the “time within which all of the peptide was digested” value (α-chymotrypsin) was no more than 6 h.
